In patent US12144864B2, “Tubulysins and protein-tubulysin conjugates” (Regeneron Pharmaceuticals, Inc., priority 2018, dated 2024):
Where two headings read alike, the source gives them in different places.

Assays:
C4-2 cells = assay: Cell-based killing assay of payloads (CellTiter-Glo), C4-2 cells; parameters: species or system human; conditions: 5-day incubation; for IC50: Homo sapiens, C4-2, 120 h, average ± SD where replicates; for C4-2 % Kill: at maximum concentration tested (100 − % viable cells)
Procedure: (§1) To test the ability of the disclosed tubulysin payloads to kill human cell lines, an in vitro cytotoxicity assay was performed. In vitro cytotoxicity of the disclosed payloads, as well as reference compounds, were evaluated using the CellTiter-Glo Assay Kit (Promega, Cat #G7573), in which the quantity of ATP present is used to determine the number of viable cells in culture. For the assay, C4-2, HEK293, or T47D cells were seeded at 4000 cells/well on Nunclon white 96-well plates in complete growth medium (DME high glucose:Ham's F12 at 4:1, 10% FBS, 100 units/ml Penicillin, 100 ug/ml streptomycin, 53 ug/ml glutatmine, 10 ug/ml insulin, 220 ng/ml biotin, 12.5 pg/ml T3, 12.5 ug/ml Adenine, 4 ug/ml transferrin for C42 cells; DME high glucose, 10% FBS, 100 units/ml Penicillin, 100 ug/ml streptomycin, 53 ug/ml glutatmine for HEK293; RPMI, 10% FBS, 100 units/ml Penicillin, 100 ug/ml streptomycin, 53 ug/ml glutatmine, 10 ug/ml insulin, 10 mM HEPEs, 200 nM Sodium Pyruvate for T47D cells) and grown overnight at 37° C. in 5% CO2. For cell viability curves, 1:3 serially diluted payloads were added to the cells at final concentrations ranging from 100 nM to […], including a no treatment control group, and were then incubated for 5 days. After the 5-day incubation, cells were incubated at room temperature with 100 μL of CellTiter-Glo reagents for 10 minutes. Relative luminescence units (RLU) were determined on a Victor plate reader (PerkinElmer). The IC50 values were determined from a four-parameter logistic equation over a 10-point response curve (GraphPad Prism). All IC50 values are expressed in molar (M) concentration. The percent cell killing (% kill) at the maximum concentration tested was estimated from the following formula (100−% viable cells). Averages±standard deviation (SD) are included where replicate experiments were performed.

HCT-15 cells = assay: Cytotoxicity in panel of MDR cell lines, HCT-15 (72 h and 144 h); format: cell-based, human; conditions: for IC50: Homo sapiens
Procedure: as §1
(§2) To further test the ability of the disclosed tubulysin payloads, a cytotoxicity assay was performed using a panel of multidrug resistant (MDR) cell lines. In vitro cytotoxicity of the disclosed payloads as well as reference compounds were similarly evaluated as described above except using HCT-15 cells, a colorectal carcinoma cell line; H69AR, a doxorubicin resistant MDR derivative of the small cell lung cancer carcinoma cell line NCI-H69; MES-SA/MX2, a mitoxantrone resistant MDR derivative of the uterine sarcoma cell line MES-SA; and HL60/MX2, a mitoxantrone resistant MDR derivative of the acute promyelocytic leukemia cell line HL60. In these assays, cytotoxicity was evaluated in normal growth media (RPMI, 10% FBS, 100 units/ml Penicillin, 100 ug/ml streptomycin, and 53 ug/ml glutatmine for HCT-15 and HL60/MX2; RPMI, 20% FBS, 100 units/ml Penicillin, 100 ug/ml streptomycin, and 53 ug/ml glutatmine for H69-AR; Waymouths's:McCoy's (1:1), 10% FBS, 100 units/ml Penicillin, 100 ug/ml streptomycin, and 53 ug/ml glutatmine for MES-SA/MX2) with 1000 cells per well following 72 h and 144 h incubation with payloads.

H69AR cells = assay: Cytotoxicity in panel of MDR cell lines, H69AR (72 h and 144 h); format: cell-based, human; conditions: for IC50: Homo sapiens
Procedure: as §1, §2

HCT15 cells = assay: cells; format: cell-based, human; conditions: HCT15 cells; for HCT-15 + verapamil % Kill / HCT-15 % Kill: maximum % cell killing
Procedure: as §1
In vitro cytotoxicity of the disclosed payloads as well as reference compounds were evaluated similarly as described above except using 1000 HCT15 cells, a colorectal carcinoma cell line, in growth medium (RPMI, 10% FBS, 100 units/ml Penicillin, 100 ug/ml streptomycin, 53 ug/ml glutatmine) with or without 5 ug/mL of Verapamil.

HL60/MX2 cells = assay: Cytotoxicity in panel of MDR cell lines, HL60/MX2 (72 h and 144 h); format: cell-based, human; conditions: for IC50: Homo sapiens
Procedure: as §1, §2

MES-SA/MX2 cells = assay: Cytotoxicity in panel of MDR cell lines, MES-SA/MX2 (72 h and 144 h); format: cell-based, human; conditions: for IC50: Homo sapiens
Procedure: as §1, §2

[1] = 72 h incubation, read-out: HCT-15 IC50 72 h
[2] = 144 h incubation, read-out: HCT-15 IC50 144 h
[3] = 72 h incubation, read-out: H69AR IC50 72 h
[4] = 144 h incubation, read-out: H69AR IC50 144 h
[5] = with 5 ug/mL Verapamil, read-out: HCT-15 + verapamil IC50
[6] = Homo sapiens, HCT-15, without Verapamil, read-out: HCT-15 IC50
[7] = with 5 ug/mL Verapamil, read-out: HCT-15 + verapamil IC50 (value in brackets)
[8] = Homo sapiens, HCT-15, without Verapamil, read-out: HCT-15 IC50 (value in brackets)

Compound | IC50 (C4-2 cells) [nM] | C4-2 % Kill (C4-2 cells) [%] | HCT-15 + verapamil % Kill (HCT15 cells; with 5 ug/mL Verapamil) [%] | IC50 (HCT15 cells; [5]) [nM] | HCT-15 % Kill (HCT15 cells; without Verapamil) [%] | IC50 (HCT15 cells; [6]) [nM] | other results
CCCCCCN(C(=O)[C@@H](NC(=O)[C@H]1CCCCN1C)[C@@H](C)CC)[C@H](C[C@@H](OC(C)=O)c1nc(C(=O)N[C@@H](Cc2ccc(F)cc2)C[C@H](C)C(=O)O)cs1)C(C)C [IVa, (2S,4R)-4-(2-((1R,3R)-1-Acetoxy-3-((2S,3S)—N-hexyl-3-methyl-2-((R)-1-methylpiperidine-2-carboxamido)pentanamido)-4-methylpentyl)thiazole-4-carboxamido)-5-(4-fluorophenyl)-2-methylpentanoic acid] | 0.0653 | 95.2 |  |  |  |  | HCT-15 % Kill 72 h (HCT-15 cells; 72 h incubation): 97.8%; HCT-15 % Kill 144 h (HCT-15 cells; 144 h incubation): 99.6%; IC50 (HCT-15 cells; [1]): 0.166 nM; IC50 (HCT-15 cells; [2]): 0.318 nM; H69AR % Kill 72 h (H69AR cells; 72 h incubation): 96.1%; H69AR % Kill 144 h (H69AR cells; 144 h incubation): 99.3%; IC50 (H69AR cells; [3]): 0.749 nM; IC50 (H69AR cells; [4]): 1.38 nM
CCCC(=O)OCN(C(=O)[C@@H](NC(=O)[C@H]1CCCCN1C)[C@@H](C)CC)[C@H](C[C@@H](OC(C)=O)c1nc(C(=O)N[C@@H](Cc2ccc(O)cc2)C[C@H](C)C(=O)O)cs1)C(C)C [reference compound] | 0.109 | 96.4 | 99.1 | 0.128 | 99.1 | 0.509 | HL60/MX2 % Kill 72 h (HL60/MX2 cells; 72 h incubation): 98%; HL60/MX2 % Kill 144 h (HL60/MX2 cells; 144 h incubation): 100%; IC50 (HL60/MX2 cells; 72 h incubation, read-out: HL60/MX2 IC50 72 h): < 0.015 nM; IC50 (HL60/MX2 cells; 144 h incubation, read-out: HL60/MX2 IC50 144 h): < 0.015 nM; MES-SA/MX2 % Kill 72 h (MES-SA/MX2 cells; 72 h incubation): 98.6%; MES-SA/MX2 % Kill 144 h (MES-SA/MX2 cells; 144 h incubation): 99.9%; IC50 (MES-SA/MX2 cells; 72 h incubation, read-out: MES-SA/MX2 IC50 72 h): 0.573 nM; IC50 (MES-SA/MX2 cells; 144 h incubation, read-out: MES-SA/MX2 IC50 144 h): 1.33 nM
CCCCCCON(C(=O)[C@@H](NC(=O)[C@H]1CCCCN1C)[C@@H](C)CC)[C@H](C[C@@H](OC(=O)NC)c1nc(C(=O)N[C@@H](Cc2ccc(O)cc2)C[C@H](C)C(=O)O)cs1)C(C)C [VIa, (2S,4R)-5-(4-Hydroxyphenyl)-4-(2-((5R,7R)-7-isopropyl-8-((2S,3S)-3-methyl-2-((R)-1-methylpiperidine-2-carboxamido)pentanoyl)-3-oxo-4,9-dioxa-2,8-diazapentadecan-5-yl)thiazole-4-carboxamido)-2-methylpentanoic acid] | 1.86 | 94.1 | 98.4 ± 0.7 | 0.255 | 97 ± 1.9 | 5.8 | HCT-15 % Kill 72 h (HCT-15 cells; 72 h incubation): 94%; HCT-15 % Kill 144 h (HCT-15 cells; 144 h incubation): 98.9%; IC50 (HCT-15 cells; [1]): 5.42 nM; IC50 (HCT-15 cells; [2]): 7.17 nM; H69AR % Kill 72 h (H69AR cells; 72 h incubation): 83.5%; H69AR % Kill 144 h (H69AR cells; 144 h incubation): 91.6%; IC50 (H69AR cells; [3]): 16 nM; IC50 (H69AR cells; [4]): 80.1 nM
CC[C@H](C)[C@H](NC(=O)[C@H]1CCCCN1C)C(=O)N(CCCCc1cn(CCCC(=O)O)nn1)[C@H](C[C@@H](OC(C)=O)c1nc(C(=O)N[C@@H](Cc2ccc(N)cc2)CC(C)(C)C(=O)O)cs1)C(C)C [IVn, (S)-4-(2-((1R,3R)-1-Acetoxy-3-((2S,3S)—N-(4-(1-(3-carboxypropyl)-1H-1,2,3-triazol-4-yl)butyl)-3-methyl-2-((R)-1-methylpiperidine-2-carboxamido)pentanamido)-4-methylpentyl)thiazole-4-carboxamido)-5-(4-aminophenyl)-2,2-dimethylpentanoic acid] | > 100 | 30.2 | 72.4 | > 30 | 30.9 | > 30 | 
C#CCCCON(C(=O)[C@@H](NC(=O)[C@H]1CCCCN1C)[C@@H](C)CC)[C@H](C[C@@H](OC(C)=O)c1nc(C(=O)N[C@@H](Cc2ccc(O)cc2)CC(C)(C)C(=O)O)cs1)C(C)C [IX, (4S)-4-({2-[(1R,3R)-1-(Acetyloxy)-4-methyl-3-[(2S,3S)-3-methyl-2-{[(2R)-1-methylpiperidin-2-yl]formamido}-N-(pent-4-yn-1-yloxy)pentanamido]pentyl]-1,3-thiazol-4-yl}formamido)-5-(4-hydroxyphenyl)-2,2-dimethylpentanoic acid] | 0.054 |  |  |  |  |  | IC50 (HCT15 cells; [7]): 0.162 nM; IC50 (HCT15 cells; [8]): 0.171 nM
CCCCCON(C(=O)[C@@H](NC(=O)[C@H]1CCCCN1C)[C@@H](C)CC)[C@H](C[C@@H](OC(C)=O)c1nc(C(=O)N[C@@H](Cc2ccc(O)cc2)CC(C)(C)C(=O)O)cs1)C(C)C [X, (4S)-4-({2-[(1R,3R)-1-(Acetyloxy)-4-methyl-3-[(2S,3S)-3-methyl-2-{[(2R)-1-methylpiperidin-2-yl]formamido}-N-(pentyloxy)pentanamido]pentyl]-1,3-thiazol-4-yl}formamido)-5-(4-hydroxyphenyl)-2,2-dimethylpentanoic acid] | 0.06 |  |  |  |  |  | IC50 (HCT15 cells; [7]): 0.116 nM; IC50 (HCT15 cells; [8]): 0.097 nM
CCCCCCN(C(=O)[C@@H](NC(=O)[C@H]1CCCCN1C)[C@@H](C)CC)[C@H](C[C@@H](OC(C)=O)c1nc(C(=O)N[C@H](Cc2ccc(N)c(F)c2)CC(C)(C)C(=O)O)cs1)C(C)C [IVvA, 4-({2-[(1R,3R)-1-(Acetyloxy)-3-[(2S,3S)—N-hexyl-3-methyl-2-{[(2R)-1-methylpiperidin-2-yl]formamido}pentanamido]-4-methylpentyl]-1,3-thiazol-4-yl}formamido)-5-(4-amino-3-fluorophenyl)-2,2-dimethylpentanoic acid] | 10.9 | 96.7 | 97.1 | 1.97 | 99.2 | 5.27 | 
CCCCCCN(C(=O)[C@@H](NC(=O)[C@H]1CCCCN1C)[C@@H](C)CC)[C@H](C[C@@H](OC(C)=O)c1nc(C(=O)N[C@@H](Cc2ccc(O)c(N)c2)CC(C)(C)C(=O)O)cs1)C(C)C [IVw, (S)-4-(2-((1R,3R)-1-Acetoxy-3-((2S,3S)—N-hexyl-3-methyl-2-((R)-1-methylpiperidine-2-carboxamido)pentanamido)-4-methylpentyl)thiazole-4-carboxamido)-5-(3-amino-4-hydroxyphenyl)-2,2-dimethylpentanoic acid] | > 100 | 27.9 | 98.3 | 4.49 | 95.9 | 9.73 | 
CCCCCCON(C(=O)[C@@H](NC(=O)[C@H]1CCCCN1C)[C@@H](C)CC)[C@H](C[C@@H](OC(=O)NCCC)c1nc(C(=O)N[C@@H](Cc2ccc(O)cc2)C[C@H](C)C(=O)O)cs1)C(C)C [VIc, (2S,4R)-5-(4-Hydroxyphenyl)-4-(2-((7R,9R)-9-isopropyl-10-((2S,3S)-3-methyl-2-((R)-1-methylpiperidine-2-carboxamido)pentanoyl)-5-oxo-6,11-dioxa-4,10-diazaheptadecan-7-yl)thiazole-4-carboxamido)-2-methylpentanoic acid] | 1.33 | 95.5 ± 1.8 | 98.8 | 0.286 | 94 | 13.2 | 
